Reference: patent US9138418B2, “Therapeutic compositions and methods for delivery of active agents cleavably linked to nanoparticles” (priority 2009, dated 2015)

Test system: MCF-7 breast cancer cells
Test: MTT cell growth inhibition assay in MCF-7 breast cancer cells
Assay type: cell-based
Conditions: 72 hours post treatment, concentrations with respect to paclitaxel content
Procedure: The antiproliferative capabilities of PTX-AuNPs from Example 1 were first investigated in vitro. To this end, cellular assays were performed to compare the ability of the PTX-AuNPs to inhibit cell growth relative to the parent drug. Briefly, MCF-7 breast cancer cells were treated over a range of concentrations (based on equivalent PTX content) for all samples and relative cell survival was measured 72 hours post treatment following the MTT protocol. Additionally, the paclitaxel pyruvate compound was also analyzed, as it represented the agent released from the gold surface upon degradation of the hydrazone linker. MCF-7 cells were plated in 6 well plates and allowed to proliferate until approximately 80-90% confluent. Once optimal confluency was reached, increasing concentrations of PTX-AuNPs were added to each well in order to ensure sufficient uptake for imaging (up to 100 μg/mL). Following 12 hours of incubation with PTX-AuNPs, the cells were fixed with a solution of gluteraldehyde and imaged by transmission electron microscopy (TEM). MCF-7 breast cancer cells were plated in 96-well plates at a concentration of 4,000 cells/well (100 μL/well) and allowed to attach for 24 hours. […] Upon agitating the plates for 2 minutes, absorbance values were recorded using a plate reader (Gene Mate, BioTek) equipped with a 570 nm filter.

Row | Compound | IC50 (Homo sapiens, MCF7, MCF-7 cells) [nM] | IC50 (MCF-7 cells) [nM]
1 | CC(=O)O[C@H]1C(=O)[C@@]2(C)[C@H]([C@H](OC(=O)c3ccccc3)[C@]3(O)C[C@H](OC(=O)[C@H](O)[C@@H](NC(=O)c4ccccc4)c4ccccc4)C(C)=C1C3(C)C)[C@]1(OC(C)=O)CO[C@@H]1C[C@@H]2O [paclitaxel] | ~4 | –
2 | CC(=O)OC1C(=O)C2(C)C(O)CC3OCC3(OC(C)=O)C2C(OC(=O)c2ccccc2)C2(O)CC(OC(=O)C(OC(=O)C(C)=O)C(NC(=O)c3ccccc3)c3ccccc3)C(C)=C1C2(C)C (centres unmarked) [paclitaxel pyruvate, Paclitaxel 2′ Pyruvate] | – | 9
